Measured values: article PMC11406361, “Several orphan solute carriers functionally identified as organic cation transporters: Substrates specificity compared with known cation transporters” (The Journal of Biological Chemistry, 2024)
Read-outs that look alike come from different tables or passages of the source.

What was measured:
[1] = target: T1, SLC47A1 (Homo sapiens, UniProt Q96FL8); assay: Uptake ratio screen, SLC47A1-overexpressing HEK293 over empty vector cells; format: cell-based; settings: 2.5 μM, 2 min
T1 sequence (Q96FL8 1-570): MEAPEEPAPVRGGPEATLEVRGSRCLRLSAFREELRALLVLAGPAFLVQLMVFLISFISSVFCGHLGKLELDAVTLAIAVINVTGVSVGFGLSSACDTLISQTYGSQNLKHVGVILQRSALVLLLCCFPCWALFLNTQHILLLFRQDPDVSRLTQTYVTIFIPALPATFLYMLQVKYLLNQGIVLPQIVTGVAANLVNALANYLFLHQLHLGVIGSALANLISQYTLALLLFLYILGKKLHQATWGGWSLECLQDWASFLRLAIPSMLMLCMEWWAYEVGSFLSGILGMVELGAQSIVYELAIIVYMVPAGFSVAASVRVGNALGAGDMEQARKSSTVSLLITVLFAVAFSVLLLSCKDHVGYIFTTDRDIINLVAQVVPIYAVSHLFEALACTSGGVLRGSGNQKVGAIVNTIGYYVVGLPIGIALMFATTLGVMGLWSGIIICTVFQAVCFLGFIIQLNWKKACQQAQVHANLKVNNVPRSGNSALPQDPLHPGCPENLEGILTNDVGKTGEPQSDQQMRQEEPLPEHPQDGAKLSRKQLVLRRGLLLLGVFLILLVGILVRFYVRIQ
Experimental: (§1) Typically discussed substrates of the proton organic-cation antiporter ([14]) are highlighted in dark green in Figure 1.
(§2) In preparation for transport experiments, 24-well plates were pre-coated with poly-D-lysine (Sigma-Aldrich) and 300,000 cells were plated per well and incubated for 48 h. Firstly, the 24-well plate was placed on a heating plate at 37 °C, and the cells were washed with 37 °C HBSS^+ buffer (Hank’s balanced salt solution supplemented with 10 mM Hepes and adjusted to pH 7.4; Thermo Fisher Scientific). The substance-of-interest, which was diluted in 37 °C HBSS^+ to a desired concentration, was added to the cells for exactly 2 min. […] The uptake was stopped with ice-cold HBSS^+, and the 24-well plate was removed from the heating plate. The cells were washed twice with the cold HBSS^+ before they were lysed for 15 min with 80% (v/v) acetonitrile containing the respective internal standard for mass spectrometry. For variations in seeded cell numbers between the cell lines, several wells were lysed in RIPA buffer and used for total protein quantification using a bicinchoninic assay ([74]) and bovine serum albumin as calibration.
(§3) The intracellular drug concentrations after transport experiments were analyzed by high-performance liquid chromatography coupled to tandem mass spectrometry analysis. The HPLC consisted of a Shimadzu Nexera HPLC System with a SIL-30AC autosampler, a LC-30AD pump, a CTO-20AC column oven, and a CBM-20A controller (Shimadzu). The reverse-phase chromatography of compounds was accomplished with a Brownlee SPP RP-Amide column with 4.6 × 100 mm inner dimensions, a particle size of 2.7 μm, and a preceding Phenomenex C-18 guard column. […] After separation, the detection of substances was performed with an API 4000 tandem mass spectrometer (AB SCIEX, https://sciex.com/support/software-support/software-downloads), followed by quantification of results with the Analyst software (AB SCIEX, version 1.6.2). […]
(§4) Transport-mediated net uptake was determined as fold-increase of transporter-overexpressing cells over empty vector–transfected control cells.

[2] = target: T2, SLC35G3 (Homo sapiens, UniProt Q8N808); assay: Uptake ratio screen, SLC35G3-overexpressing HEK293 over empty vector cells; format: cell-based; design: by amplifying the entire gene-of-interest within the HEK293 genome via a long-range PCR
[3] = target: SLC47A2 (Homo sapiens, UniProt Q86VL8); assay: Uptake ratio screen, SLC47A2-overexpressing HEK293 over empty vector cells; format: cell-based; settings: 2.5 μM, 2 min
Experimental: as §1, §2, §3, §4

[4] = target: SLC38A10 (Homo sapiens, UniProt Q9HBR0); settings: SLC38A10, HEK293, net uptake over empty vector cells
[5] = target: T2, SLC35G3
[6] = target: T3, SLC22A15 (Homo sapiens, UniProt Q8IZD6); assay: Uptake ratio screen, SLC22A15-overexpressing HEK293 over empty vector cells; format: cell-based; settings: 2.5 μM (nicotine 10 μM), 2 min
T3 construct: by amplifying the entire gene-of-interest within the HEK293 genome via a long-range PCR
Experimental: as §1, §2
(§5) The intracellular drug concentrations after transport experiments were analyzed by high-performance liquid chromatography coupled to tandem mass spectrometry analysis. The HPLC consisted of a Shimadzu Nexera HPLC System with a SIL-30AC autosampler, a LC-30AD pump, a CTO-20AC column oven, and a CBM-20A controller (Shimadzu). The reverse-phase chromatography of compounds was accomplished with a Brownlee SPP RP-Amide column with 4.6 × 100 mm inner dimensions, a particle size of 2.7 μm, and a preceding Phenomenex C-18 guard column. The mobile phase was composed of an organic additive with acetonitrile:methanol 6:1 (v/v) in total concentrations between 3% and 50% (v/v) and 0.1% (v/v) formic acid in the aqueous component of the eluent. During separation, the column oven was held at 40 °C and the mobile phase was maintained at a flow rate of 300 or 400 μl/min. After separation, the detection of substances was performed with an API 4000 tandem mass spectrometer (AB SCIEX, https://sciex.com/support/software-support/software-downloads), followed by quantification of results with the Analyst software (AB SCIEX, version 1.6.2). The composition of chromatographic conditions, as well as detailed mass spectrometric detection parameters, are listed in Table S5.
as §4

[7] = target: T4, SLC35F5 (Homo sapiens, UniProt Q8WV83); assay: Uptake ratio screen, SLC35F5-overexpressing HEK293 over empty vector cells; format: cell-based; design: by amplifying the entire gene-of-interest within the HEK293 genome via a long-range PCR; settings: 2.5 μM, 2 min
T4 sequence (Q8WV83 1-523): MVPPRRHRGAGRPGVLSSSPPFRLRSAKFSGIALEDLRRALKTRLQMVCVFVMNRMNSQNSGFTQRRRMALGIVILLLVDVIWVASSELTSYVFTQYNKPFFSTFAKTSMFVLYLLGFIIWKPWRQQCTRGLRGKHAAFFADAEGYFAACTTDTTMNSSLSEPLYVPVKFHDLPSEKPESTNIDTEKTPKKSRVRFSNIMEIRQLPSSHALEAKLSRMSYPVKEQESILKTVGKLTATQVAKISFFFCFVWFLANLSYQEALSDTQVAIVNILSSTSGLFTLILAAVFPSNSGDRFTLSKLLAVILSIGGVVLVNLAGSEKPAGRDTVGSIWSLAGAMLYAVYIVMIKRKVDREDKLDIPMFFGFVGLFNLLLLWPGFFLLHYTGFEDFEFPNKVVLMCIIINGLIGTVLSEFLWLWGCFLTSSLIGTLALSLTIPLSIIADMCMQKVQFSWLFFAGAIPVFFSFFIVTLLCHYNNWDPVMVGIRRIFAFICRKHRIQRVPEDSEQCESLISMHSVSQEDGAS
Experimental: as §1, §2, §5, §4

[8] = target: T2, SLC35G3; settings: ratio of Vmax over KM
[9] = target: T5, SLC19A3 (Homo sapiens, UniProt Q9BZV2); assay: Uptake ratio screen, SLC19A3-overexpressing HEK293 over empty vector cells; format: cell-based; settings: 2.5 μM, 2 min
T5 construct: expressed in transfected cells
Experimental: as §1
In preparation for transport experiments, 24-well plates were pre-coated with poly-D-lysine (Sigma-Aldrich) and 300,000 cells were plated per well and incubated for 48 h. Firstly, the 24-well plate was placed on a heating plate at 37 °C, and the cells were washed with 37 °C HBSS^+ buffer (Hank’s balanced salt solution supplemented with 10 mM Hepes and adjusted to pH 7.4; Thermo Fisher Scientific). The substance-of-interest, which was diluted in 37 °C HBSS^+ to a desired concentration, was added to the cells for exactly 2 min. […] For variations in seeded cell numbers between the cell lines, several wells were lysed in RIPA buffer and used for total protein quantification using a bicinchoninic assay ([74]) and bovine serum albumin as calibration.
The intracellular drug concentrations after transport experiments were analyzed by high-performance liquid chromatography coupled to tandem mass spectrometry analysis. […] After separation, the detection of substances was performed with an API 4000 tandem mass spectrometer (AB SCIEX, https://sciex.com/support/software-support/software-downloads), followed by quantification of results with the Analyst software (AB SCIEX, version 1.6.2). […]

[10] = 2.5 μM substrate, 2 min, HEK293

T3 sequence (Q8IZD6 whole entry): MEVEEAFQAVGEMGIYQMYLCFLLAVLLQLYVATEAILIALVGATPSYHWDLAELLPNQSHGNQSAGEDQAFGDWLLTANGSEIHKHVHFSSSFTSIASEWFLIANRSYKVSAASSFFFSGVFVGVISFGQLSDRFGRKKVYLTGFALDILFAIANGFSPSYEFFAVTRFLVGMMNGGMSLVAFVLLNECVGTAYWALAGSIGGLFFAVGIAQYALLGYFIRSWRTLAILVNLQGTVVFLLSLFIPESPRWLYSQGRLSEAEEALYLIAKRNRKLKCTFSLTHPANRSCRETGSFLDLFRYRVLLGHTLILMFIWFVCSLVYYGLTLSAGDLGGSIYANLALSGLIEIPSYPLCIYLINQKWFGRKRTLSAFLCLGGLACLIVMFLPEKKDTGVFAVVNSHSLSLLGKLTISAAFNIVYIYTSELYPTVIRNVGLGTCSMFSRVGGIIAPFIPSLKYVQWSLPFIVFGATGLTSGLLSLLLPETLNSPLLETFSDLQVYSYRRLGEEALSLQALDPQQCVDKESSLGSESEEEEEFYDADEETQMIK
T2 sequence (Q8N808 whole entry): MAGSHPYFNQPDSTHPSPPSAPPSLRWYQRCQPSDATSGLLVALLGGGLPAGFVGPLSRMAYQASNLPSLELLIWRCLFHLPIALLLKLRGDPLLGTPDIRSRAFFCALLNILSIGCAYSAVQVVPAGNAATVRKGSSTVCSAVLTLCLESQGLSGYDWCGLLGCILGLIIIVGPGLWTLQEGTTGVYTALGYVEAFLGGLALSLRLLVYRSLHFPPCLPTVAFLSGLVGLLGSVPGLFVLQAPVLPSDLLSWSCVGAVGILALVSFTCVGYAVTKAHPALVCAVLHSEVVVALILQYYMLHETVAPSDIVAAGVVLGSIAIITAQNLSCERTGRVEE
Sequence of SLC38A10 (Q9HBR0 whole entry): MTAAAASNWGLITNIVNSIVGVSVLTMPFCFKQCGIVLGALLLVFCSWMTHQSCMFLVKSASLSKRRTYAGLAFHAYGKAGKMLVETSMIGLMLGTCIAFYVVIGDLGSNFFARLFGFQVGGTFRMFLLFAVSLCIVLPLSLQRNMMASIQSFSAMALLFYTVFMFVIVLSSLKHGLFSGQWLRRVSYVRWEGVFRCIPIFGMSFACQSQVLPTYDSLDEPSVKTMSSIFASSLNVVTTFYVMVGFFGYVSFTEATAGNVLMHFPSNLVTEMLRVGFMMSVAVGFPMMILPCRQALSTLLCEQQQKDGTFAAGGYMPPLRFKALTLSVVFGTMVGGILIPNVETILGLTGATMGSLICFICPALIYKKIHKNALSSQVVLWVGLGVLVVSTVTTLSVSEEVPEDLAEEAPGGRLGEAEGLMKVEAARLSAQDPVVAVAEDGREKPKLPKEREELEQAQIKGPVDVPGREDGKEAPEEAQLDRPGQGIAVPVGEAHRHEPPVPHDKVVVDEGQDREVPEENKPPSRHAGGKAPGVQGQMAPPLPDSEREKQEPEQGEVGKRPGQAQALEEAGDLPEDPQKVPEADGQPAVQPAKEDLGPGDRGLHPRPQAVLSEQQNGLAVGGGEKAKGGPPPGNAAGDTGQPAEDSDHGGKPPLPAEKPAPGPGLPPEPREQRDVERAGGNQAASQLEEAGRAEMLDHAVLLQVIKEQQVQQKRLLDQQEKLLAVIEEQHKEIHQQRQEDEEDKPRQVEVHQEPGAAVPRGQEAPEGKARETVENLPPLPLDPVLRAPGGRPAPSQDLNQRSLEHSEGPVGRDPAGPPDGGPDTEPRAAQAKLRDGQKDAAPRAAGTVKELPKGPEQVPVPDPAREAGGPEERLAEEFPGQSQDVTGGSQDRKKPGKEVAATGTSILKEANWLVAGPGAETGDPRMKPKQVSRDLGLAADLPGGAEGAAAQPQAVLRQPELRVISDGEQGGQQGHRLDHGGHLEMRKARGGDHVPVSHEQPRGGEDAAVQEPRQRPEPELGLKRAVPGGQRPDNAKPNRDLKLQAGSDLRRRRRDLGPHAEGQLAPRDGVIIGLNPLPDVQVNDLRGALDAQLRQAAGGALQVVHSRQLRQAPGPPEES
T5 sequence (Q9BZV2 whole entry): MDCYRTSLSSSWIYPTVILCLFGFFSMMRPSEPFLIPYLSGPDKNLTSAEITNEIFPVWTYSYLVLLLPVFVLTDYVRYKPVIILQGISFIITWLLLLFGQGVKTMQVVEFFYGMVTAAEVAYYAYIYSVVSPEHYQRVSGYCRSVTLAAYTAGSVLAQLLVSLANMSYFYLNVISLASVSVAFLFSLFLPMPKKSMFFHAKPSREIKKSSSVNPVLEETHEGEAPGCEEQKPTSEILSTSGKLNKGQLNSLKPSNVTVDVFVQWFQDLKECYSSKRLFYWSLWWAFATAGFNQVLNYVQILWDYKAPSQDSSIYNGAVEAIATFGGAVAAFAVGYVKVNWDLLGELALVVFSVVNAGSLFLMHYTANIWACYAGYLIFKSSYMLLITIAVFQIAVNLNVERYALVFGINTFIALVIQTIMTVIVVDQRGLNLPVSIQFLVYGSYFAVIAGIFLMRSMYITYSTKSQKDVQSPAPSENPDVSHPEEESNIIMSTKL
Sequence of SLC47A2 (Q86VL8 1-566 isoform Q86VL8-3): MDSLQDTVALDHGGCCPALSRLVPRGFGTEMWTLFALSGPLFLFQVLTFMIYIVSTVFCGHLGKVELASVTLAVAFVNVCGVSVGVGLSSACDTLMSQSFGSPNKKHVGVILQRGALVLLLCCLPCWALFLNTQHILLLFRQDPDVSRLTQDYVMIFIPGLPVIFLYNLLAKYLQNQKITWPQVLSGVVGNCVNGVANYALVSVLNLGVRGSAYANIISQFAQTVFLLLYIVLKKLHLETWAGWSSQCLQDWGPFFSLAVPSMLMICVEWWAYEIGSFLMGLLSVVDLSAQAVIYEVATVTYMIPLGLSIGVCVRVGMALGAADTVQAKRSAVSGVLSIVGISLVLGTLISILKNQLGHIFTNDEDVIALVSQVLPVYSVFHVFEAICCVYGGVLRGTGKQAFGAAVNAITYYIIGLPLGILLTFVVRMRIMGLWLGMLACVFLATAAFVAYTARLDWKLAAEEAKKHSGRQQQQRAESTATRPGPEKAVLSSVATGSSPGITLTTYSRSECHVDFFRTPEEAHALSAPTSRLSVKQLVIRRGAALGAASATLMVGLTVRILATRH

| SMILES | Uptake data for SLC35G3, mean value (fold-increase over empty vector control) [2, 10] | Uptake by SLC22A15 (in words) [6] | other results |
| --- | --- | --- | --- |
| Nc1nc2c(ncn2COCCO)c(=O)[nH]1 [Acyclovir] | 1.21 | – | Uptake by SLC47A1 (MATE1) (in words) [1]: only transported by the MATEs; Uptake by SLC47A2 (MATE2K) (in words) [3]: only transported by the MATEs |
| CC(N)Cc1ccccc1 (stereo not shown) [Amphetamine] | 1.28 | – | Vmax (±SEM) [4]: 97.4 (±11.1) pmol × mg protein^-1 × min^-1 |
| CCCNC(C)C(=O)Nc1c(C)csc1C(=O)OC (stereo not shown) [Articaine] | 2.91 | – | Clint (±SEM) [5]: 2.04 (±2.24) μl × mg protein^-1 × min^-1 |
| C[N+](C)(C)CC(O)CC(=O)[O-] (stereo not shown) [Carnitine-d9] | 1.05 | did not measure significant uptake | – |
| C[N+](C)(C)[C@@H](Cc1c[nH]c(=S)[nH]1)C(=O)[O-] [Ergothionine] | 1.67 | did not measure significant uptake | – |
| CNC(C)Cc1ccc2c(c1)OCO2 (stereo not shown) [MDMA, 3,4-methylenedioxymethamphetamine] | – | significantly increased the uptake | Uptake by SLC35F5 (in words) [7]: highest uptake rates; Uptake data for SLC35G3, mean value (fold-increase over empty vector control) [2]: 1.58; Clint (±SEM) [8]: 4.31 (±2.26) μl × mg protein^-1 × min^-1 |
| C[n+]1ccc(-c2ccccc2)cc1 [MPP^+, 1-methyl-4-phenylpyridinium] | – | – | Uptake by SLC19A3 (in words) [9]: moderate |
